Laboratory results reported in patent US4535079A, “Alkanolaminoxy derivatives of 3,4-dihydro-2H-1,4-benzothiazin-3-one, their production process, and their pharmaceutical use” (Mediolanum Farmaceutici S.R.L., priority 1982, dated 1985).
Counter-ions that a name gives are not always drawn.

Legend:
[1] = LD50 in the male Wistar rat by intravenous administration; details: in vivo, i.v.
[2] = test system: beta-adrenergic cardiac receptors (isolated guinea pig atrium); assay: Beta-blocking activity: isolated guinea pig atrium method; details: concentration inhibiting 25% of the response to isoprenaline, 29° C., 10 minutes before isoprenaline
Method: (a) Beta-blocking activity: isolated guinea pig atrium method
The compounds under examination were tested on the isolated guinea pig atrium for their capacity to antagonise the positive inotropic and chronotropic effects induced by isoprenaline. The preparations were made up from native guinea pigs weighing 450±50 g and suspended in a 10 ml bath of oxygenated Tyrode maintained at 29° C., the frequency and force of contraction being recorded by means of an isotonic pen loaded with 1.5 g and having an amplification ratio of 1:15. The substance under test was added to the medium in a volume of 0.1 ml 10 minutes before stimulation by isoprenalina administered at the optimum concentration which had been determined on the basis of the reactivity of the preparation.

[3] = test system: guinea pig; assay: Protection from the lethal effect of aconitine in the guinea pig; format: in vivo; details: Cavia porcellus, 10 min, intravenous, 10 minutes before aconitine perfusion, read-out: percentage increase in the time of death by aconitine with respect to the control animals; for change in vivo at 0.01 mg/kg: dose 10 μg/kg; for change in vivo at 0.02 mg/kg: dose 20 μg/kg; for change in vivo at 0.015 mg/kg: dose 15 μg/kg; for change in vivo at 0.025 mg/kg: dose 25 μg/kg; for change in vivo at 0.009 mg/kg: dose 9 μg/kg
Method: Protection from the methal effect of aconitine in the guinea pig. For the compounds according to the invention, an evaluation was made of their capacity to antagonise the lethal effect of aconitine in native guinea pigs of both sexes having an average weight of 400±50 g, anesthetized with 10% ethylurethan (1 g/kg i.p.), by making an E.C.G. precardiacal recording. Death was induced by perfusing aconitine through the jugular at a dose of 150 γ/kg/hour (5 ml/hour). The time of commencement of arrhythmia, the time of commencement of fibrillation and the time of death were checked. The product under examination were administered to the jugular vein 10 minutes before commencement of perfusion in doses from 0.01 mg/kg to 10 mg/kg.

[4] = test system: isolated guinea pig trachea; assay: Beta-blocking activity by the isolated guinea pig trachea method; details: concentration able to inhibit 50% of the response; 37° C., 12 minutes before stimulation
Method: (b) Beta-blocking activity by the isolated guinea pig trachea method
The series was also tested for beta-blocking activity at the level of the isolated guinea pig trachea, evaluated as antagonism to the effect of isoprenaline.
A trachea segment was withdrawn from animals weighing 450±50 g, and a spiral of tissue was prepared and then suspended in a 20 ml bath of oxygenated Tyrode containing 10^-7 g/ml of acetylcholine and […] of eserine, the bath being temperature-controlled at 37° C. The recording was made by means of an isotonic pen with maximum amplification,loaded to 0.5 g and constantly cibrated.
Having determined the sub-maximum concentration of isoprenaline for stimulating the preparation, the test substance was placed in contact with it at different concentrations 12 minutes before stimulation, then evaluating the antagonistic effect.

| Compound | LD50 [1] [mg/kg] | IC25, positive chronotropic effect with isoprenaline [2] [µg/mL] | IC25, positive inotropic effect with isoprenaline [2] [µg/mL] | change in vivo at 0.01 mg/kg [3] [%] | IC50, antagonism in the response of the isolated guinea pig trachea to isoprenaline [4] [µg/mL] | change in vivo at 0.02 mg/kg [3] [%] | change in vivo at 0.015 mg/kg [3] [%] | change in vivo at 0.025 mg/kg [3] [%] | change in vivo at 0.009 mg/kg [3] [%] |
| --- | --- | --- | --- | --- | --- | --- | --- | --- | --- |
| CC(C)(C)NCC(O)COc1cccc2c1CCC(=O)N2 (stereo not drawn) [Carteolol, 5-(3-tert.butylamino-2-hydroxy-propoxy)-3,4-dihydro-carbostyryl-hydrochloride, reference compound] | 50 | 0.00905 | 0.00173 | – | – | – | – | – | – |
| CC(C)(C)NCC(O)COc1ccc2c(c1)SCC(=O)N2 (stereo not drawn) [Compound XIII, 7-(3-tert.butylamino-2-hydroxy)-propoxy-3,4-dihydro-2H-1,4-benzothiazin-3-one] | 60 | 0.0703 | 0.0565 | 39.7 | 0.125 | – | – | – | – |
| CC(C)CNCC(O)COc1ccc2c(c1)SCC(=O)N2 (stereo not drawn) [Compound XII] | 82 | 0.55 | 0.361 | – | 0.806 | 16.4 | – | – | – |
| CC(C)NCC(O)COc1ccc2c(c1)SCC(=O)N2 (stereo not drawn) [Compound XI] | 65 | 0.091 | 0.0743 | – | 0.76 | – | 21.3 | – | – |
| CCC(C)NCC(O)COc1ccc2c(c1)NC(=O)CS2 (stereo not drawn) [Compound X] | 78 | 0.803 | 0.67 | – | 0.66 | – | – | 11.3 | – |
| CC(C)(C)NCC(O)COc1ccc2c(c1)NC(=O)CS2 (stereo not drawn) [IX] | 75 | 0.255 | 0.203 | 25.9 | 0.568 | – | – | – | – |
| CC(C)CNCC(O)COc1ccc2c(c1)NC(=O)CS2 (stereo not drawn) [VIII] | 83 | 0.861 | 0.741 | – | 1.14 | 19 | – | – | – |
| CC(C)NCC(O)COc1ccc2c(c1)NC(=O)CS2 (stereo not drawn) [VII] | 80 | 0.415 | 0.346 | – | 0.43 | – | – | 24.1 | – |
| CCC(C)NCC(O)COc1ccc2c(c1)SCC(=O)N2 (stereo not drawn) [XIV] | 68 | 0.202 | 0.0978 | – | 0.25 | – | 20.6 | – | – |
| CCC(C)NCC(O)COc1cccc2c1SCC(=O)N2 (stereo not drawn) [XVIII] | 75 | 0.803 | 0.0705 | 49.2 | 1.21 | – | – | – | – |
| CC(C)(C)NCC(O)COc1cccc2c1SCC(=O)N2 (stereo not drawn) [XVII] | 50 | 0.000992 | 0.000276 | – | 0.0015 | – | – | – | 55.4 |
| CC(C)CNCC(O)COc1cccc2c1SCC(=O)N2 (stereo not drawn) [XVI] | 67 | 0.13 | 0.0995 | 32.2 | 0.112 | – | – | – | – |
| CC(C)NCC(O)COc1cccc2c1SCC(=O)N2 (stereo not drawn) [XV] | 73 | 0.0641 | 0.0587 | – | 0.123 | – | – | – | 48.6 |
